According to ChEMBL document CHEMBL1201862, “PubChem BioAssay data set” (2004):
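Step 1: Grow cells in 96-well plates. Step 2: Expose to compound for 48 hours at 5 concentrations. Step 3: Interpolate endpoints linearly; if unreached, use highest concentration. GI50: concentration for 50% inhibition of growth.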 Activity calls are given as the source filed them. No stated cut-off is given here; in the data, active = GI50 up to about 1.1 µM and inactive = higher.

Experiments:
Assay in all cases: DTP human tumour cell line panel, 48 h
SN12C = tested on: SN12C
K562 = tested on: K562
SF-268 = tested on: SF-268
CAKI-1 = tested on: CAKI-1
786-0 = tested on: 786-0
RXF 393 = tested on: RXF 393
SK-MEL-2 = tested on: SK-MEL-2
SF-539 = tested on: SF-539
HCC 2998 = tested on: HCC 2998
OVCAR-4 = tested on: OVCAR-4
KM12 = tested on: KM12
DU-145 = tested on: DU-145
MDA-N = tested on: MDA-N
HL-60 = tested on: HL-60
MDA-MB-231 = tested on: MDA-MB-231
COLO 205 = tested on: COLO 205
NCI-H23 = tested on: NCI-H23
OVCAR-3 = tested on: OVCAR-3
A498 = tested on: A498
ACHN = tested on: ACHN
HT-29 = tested on: HT-29
NCI-H522 = tested on: NCI-H522
Hs-578T = tested on: Hs-578T
UACC-62 = tested on: UACC-62
Malme-3M = tested on: Malme-3M
SNB-19 = tested on: SNB-19
EKVX = tested on: EKVX
SW-620 = tested on: SW-620
HOP-62 = tested on: HOP-62
HOP-92 = tested on: HOP-92
MDA-MB-435 = tested on: MDA-MB-435
OVCAR-8 = tested on: OVCAR-8
SK-OV-3 = tested on: SK-OV-3
T47D = tested on: T47D
IGROV-1 = tested on: IGROV-1
M14 = tested on: M14
SK-MEL-28 = tested on: SK-MEL-28
BT-549 = tested on: BT-549
U-251 = tested on: U-251
LOX IMVI = tested on: LOX IMVI
CCRF-CEM = tested on: CCRF-CEM
NCI-H460 = tested on: NCI-H460
UO-31 = tested on: UO-31
RPMI-8226 = tested on: RPMI-8226
OVCAR-5 = tested on: OVCAR-5
HCT-15 = tested on: HCT-15
MOLT-4 = tested on: MOLT-4
UACC-257 = tested on: UACC-257
SR = tested on: SR
SF-295 = tested on: SF-295
MCF7 = tested on: MCF7
A549 = tested on: A549
NCI-H226 = tested on: NCI-H226
SK-MEL-5 = tested on: SK-MEL-5
PC-3 = tested on: PC-3
HCT-116 = tested on: HCT-116
TK-10 = tested on: TK-10
NCI/ADR-RES = tested on: NCI/ADR-RES
SNB-75 = tested on: SNB-75

Nc1nn2c(nc(N)c3c(N)n[nH]c32)c1/N=N\c1ccc(Br)cc1
GI50 (SN12C): 7.76 µM (inactive) | GI50 (K562): 2.16 µM (inactive) | GI50 (SF-268): 7.66 µM (inactive) | GI50 (CAKI-1): > 100 µM (inactive) | GI50 (786-0): 40.9 µM (inactive) | GI50 (RXF 393): > 100 µM (inactive) | GI50 (SK-MEL-2): 12.3 µM (inactive) | GI50 (SF-539): 15.1 µM (inactive) | GI50 (HCC 2998): > 100 µM (inactive) | GI50 (OVCAR-4): 16.4 µM (inactive) | GI50 (KM12): 13.1 µM (inactive) | GI50 (DU-145): > 100 µM (inactive) | GI50 (MDA-N): 3.65 µM (inactive) | GI50 (HL-60): 8.15 µM (inactive) | GI50 (MDA-MB-231): 0.524 µM (active) | GI50 (COLO 205): > 63.2 µM (inactive) | GI50 (NCI-H23): > 5.61 µM (inactive) | GI50 (OVCAR-3): 32.6 µM (inactive) | GI50 (A498): > 100 µM (inactive) | GI50 (ACHN): 69.3 µM (inactive) | GI50 (HT-29): 55.8 µM (inactive) | GI50 (NCI-H522): 27.5 µM (inactive) | GI50 (Hs-578T): 3.32 µM (inactive) | GI50 (UACC-62): > 100 µM (inactive) | GI50 (Malme-3M): 4.42 µM (inactive) | GI50 (SNB-19): 29.9 µM (inactive) | GI50 (EKVX): > 100 µM (inactive) | GI50 (SW-620): 43.7 µM (inactive) | GI50 (HOP-62): 42.9 µM (inactive) | GI50 (HOP-92): 3.71 µM (inactive) | GI50 (MDA-MB-435): 3.13 µM (inactive) | GI50 (OVCAR-8): 21 µM (inactive) | GI50 (SK-OV-3): > 100 µM (inactive) | GI50 (T47D): 1.76 µM (inactive) | GI50 (IGROV-1): 81.8 µM (inactive) | GI50 (M14): 5.86 µM (inactive) | GI50 (SK-MEL-28): 7.73 µM (inactive) | GI50 (BT-549): 2.92 µM (inactive) | GI50 (U-251): 6.01 µM (inactive) | GI50 (LOX IMVI): 2.88 µM (inactive) | GI50 (CCRF-CEM): 2.1 µM (inactive) | GI50 (NCI-H460): > 100 µM (inactive) | GI50 (UO-31): > 100 µM (inactive) | GI50 (RPMI-8226): > 100 µM (inactive) | GI50 (OVCAR-5): 23.7 µM (inactive) | GI50 (HCT-15): > 91.8 µM | GI50 (MOLT-4): 3.53 µM (inactive) | GI50 (UACC-257): 26.7 µM (inactive) | GI50 (SR): 2.72 µM (inactive) | GI50 (SF-295): > 100 µM (inactive) | GI50 (MCF7): > 100 µM (inactive) | GI50 (A549): > 100 µM (inactive) | GI50 (NCI-H226): 55 µM (inactive) | GI50 (SK-MEL-5): > 100 µM (inactive) | GI50 (PC-3): > 100 µM (inactive) | GI50 (HCT-116): 53.8 µM (inactive) | GI50 (TK-10): 66.8 µM (inactive) | GI50 (NCI/ADR-RES): > 100 µM (inactive) | GI50 (SNB-75): 18.1 µM (inactive)

Cc1cc(N(CCC#N)CCC#N)ccc1/C=N/NC(=O)c1ccccc1
GI50 (SN12C): 28.5 µM (inactive) | GI50 (K562): 3.76 µM (inactive) | GI50 (SF-268): > 48.8 µM (inactive) | GI50 (CAKI-1): 23.1 µM (inactive) | GI50 (786-0): 31.6 µM (inactive) | GI50 (RXF 393): 28.4 µM (inactive) | GI50 (SK-MEL-2): 52.8 µM (inactive) | GI50 (SF-539): 7.76 µM (inactive) | GI50 (HCC 2998): 9.2 µM (inactive) | GI50 (OVCAR-4): 65.8 µM (inactive) | GI50 (KM12): 3.54 µM (inactive) | GI50 (DU-145): 26.1 µM (inactive) | GI50 (MDA-N): 2.86 µM (inactive) | GI50 (HL-60): 4.17 µM (inactive) | GI50 (MDA-MB-231): 15 µM (inactive) | GI50 (COLO 205): 15.7 µM (inactive) | GI50 (NCI-H23): 25.2 µM (inactive) | GI50 (OVCAR-3): 15 µM (inactive) | GI50 (A498): 10.1 µM (inactive) | GI50 (ACHN): 85.3 µM (inactive) | GI50 (HT-29): 3.79 µM (inactive) | GI50 (NCI-H522): 8.34 µM (inactive) | GI50 (Hs-578T): 15.4 µM (inactive) | GI50 (UACC-62): 10.4 µM (inactive) | GI50 (Malme-3M): 33.2 µM (inactive) | GI50 (SNB-19): > 59.2 µM (inactive) | GI50 (EKVX): 48.9 µM (inactive) | GI50 (SW-620): 8.38 µM (inactive) | GI50 (HOP-62): 31.8 µM (inactive) | GI50 (HOP-92): 76.4 µM (inactive) | GI50 (MDA-MB-435): 2.42 µM (inactive) | GI50 (OVCAR-8): 23.5 µM (inactive) | GI50 (SK-OV-3): 18.5 µM (inactive) | GI50 (T47D): 24.8 µM (inactive) | GI50 (IGROV-1): 12.9 µM (inactive) | GI50 (M14): 40.6 µM (inactive) | GI50 (SK-MEL-28): 31.5 µM (inactive) | GI50 (BT-549): 42.7 µM (inactive) | GI50 (U-251): 22.5 µM (inactive) | GI50 (LOX IMVI): 8.02 µM (inactive) | GI50 (CCRF-CEM): 23.1 µM (inactive) | GI50 (NCI-H460): 9.1 µM (inactive) | GI50 (UO-31): > 62.1 µM (inactive) | GI50 (RPMI-8226): 58.1 µM (inactive) | GI50 (OVCAR-5): > 80.5 µM (inactive) | GI50 (HCT-15): 5.28 µM | GI50 (MOLT-4): 24.3 µM (inactive) | GI50 (UACC-257): > 48.9 µM (inactive) | GI50 (SR): 1.34 µM (inactive) | GI50 (SF-295): 12.9 µM (inactive) | GI50 (MCF7): 7.82 µM (inactive) | GI50 (A549): 24.4 µM (inactive) | GI50 (NCI-H226): 20.2 µM (inactive) | GI50 (SK-MEL-5): 22 µM (inactive) | GI50 (PC-3): 21.8 µM (inactive) | GI50 (HCT-116): 7.57 µM (inactive) | GI50 (TK-10): 48.3 µM (inactive) | GI50 (NCI/ADR-RES): 8.63 µM (inactive) | GI50 (SNB-75): 28.9 µM (inactive)

COc1ccc(-c2cc(=O)c3ccc(O)cc3o2)cc1OC
GI50 (SN12C): 41.3 µM (inactive) | GI50 (K562): 30 µM (inactive) | GI50 (SF-268): > 100 µM (inactive) | GI50 (CAKI-1): 25.7 µM (inactive) | GI50 (786-0): 56.9 µM (inactive) | GI50 (RXF 393): 5.85 µM (inactive) | GI50 (SK-MEL-2): > 100 µM (inactive) | GI50 (SF-539): 23.4 µM (inactive) | GI50 (HCC 2998): 46.9 µM (inactive) | GI50 (OVCAR-4): 24.7 µM (inactive) | GI50 (KM12): 59.3 µM (inactive) | GI50 (DU-145): 48 µM (inactive) | GI50 (MDA-N): 47.6 µM (inactive) | GI50 (HL-60): 23.5 µM (inactive) | GI50 (MDA-MB-231): 77.4 µM (inactive) | GI50 (COLO 205): 68.4 µM (inactive) | GI50 (NCI-H23): 52.1 µM (inactive) | GI50 (OVCAR-3): 57.3 µM (inactive) | GI50 (A498): 34 µM (inactive) | GI50 (ACHN): 48.9 µM (inactive) | GI50 (HT-29): 41.8 µM (inactive) | GI50 (NCI-H522): 16.6 µM (inactive) | GI50 (Hs-578T): 32.7 µM (inactive) | GI50 (UACC-62): 33.8 µM (inactive) | GI50 (Malme-3M): 67.1 µM (inactive) | GI50 (SNB-19): 35.6 µM (inactive) | GI50 (EKVX): 43.7 µM (inactive) | GI50 (SW-620): 37.8 µM (inactive) | GI50 (HOP-62): 25.5 µM (inactive) | GI50 (HOP-92): 56.6 µM (inactive) | GI50 (MDA-MB-435): 45.5 µM (inactive) | GI50 (OVCAR-8): 37.4 µM (inactive) | GI50 (SK-OV-3): 41.4 µM (inactive) | GI50 (T47D): 25.9 µM (inactive) | GI50 (IGROV-1): 32.9 µM (inactive) | GI50 (M14): 72.8 µM (inactive) | GI50 (SK-MEL-28): 71.9 µM (inactive) | GI50 (BT-549): 46.5 µM (inactive) | GI50 (U-251): 43.9 µM (inactive) | GI50 (LOX IMVI): 33.5 µM (inactive) | GI50 (CCRF-CEM): 25.8 µM (inactive) | GI50 (NCI-H460): 25.5 µM (inactive) | GI50 (RPMI-8226): 22.8 µM (inactive) | GI50 (OVCAR-5): > 100 µM (inactive) | GI50 (HCT-15): 32.4 µM | GI50 (MOLT-4): 25.6 µM (inactive) | GI50 (UACC-257): > 100 µM (inactive) | GI50 (SR): 13 µM (inactive) | GI50 (SF-295): 31.3 µM (inactive) | GI50 (MCF7): 25.8 µM (inactive) | GI50 (A549): 38.5 µM (inactive) | GI50 (NCI-H226): > 100 µM (inactive) | GI50 (SK-MEL-5): 15.2 µM (inactive) | GI50 (PC-3): 32.3 µM (inactive) | GI50 (HCT-116): 30.2 µM (inactive) | GI50 (TK-10): 59.3 µM (inactive) | GI50 (NCI/ADR-RES): 34.9 µM (inactive) | GI50 (SNB-75): 10.2 µM (inactive)
